Results published in patent US8148424B2, “Tocopherols, tocotrienols, other chroman and side chain derivatives and uses thereof” (Research Development Foundation, priority 1998, dated 2012).
Converted amounts (≈) assume the structure as drawn. Where two headings read alike, the source gives them in different places.

Assays:
[1] = test system: human cancer cells from a wide variety of cell lineages; test: Apoptosis induction in a battery of tumor cells; type: cell-based; conditions: breast, prostate, leukemia/lymphoid, cervical, ovarian, endometrial, colon, lung cell lines
Method: (§1) Cells were cultured at 1.5×10^5 cells/well in 12 well plates. Cells were allowed to adhere overnight, then incubated with novel test compounds at 0.01, 0.1, 1, 5, 10 & 20 μg/mL for 1, 2 and 3 days. After treatment, cells (floating+trypsin released adherent cells) were pelleted, washed and stained with 2 μg/ml DAPI (4′,6-diamidine-2′-phenylindole dihydrochloride) in 100% methanol for 15 minutes at 37° C. and/or 3′-OH ends resulting from DNA fragmentation were detected with the TUNEL (terminal deoxynucleotidyl transferase-mediated dUTP-X 3′ nick end-labeling) technique, and then viewed using a Zeiss ICM 405 microscope. Cells whose nucleus contained clearly condensed or fragmented chromatin or stained for fragmented DNA in the TUNEL assay were scored as apoptotic. Data are presented as percent cells undergoing apoptosis.

[2] = test system: DU-145; test: Bioassay for apoptosis (apoptotic EC50); type: cell-based, human; conditions: Homo sapiens, unit inferred
Method: as §1

[3] = test system: LnCaP; test: Bioassay for apoptosis (apoptotic EC50); type: cell-based, human; conditions: Homo sapiens, unit inferred
Method: as §1

[4] = test system: HL-60; test: Bioassay for apoptosis (apoptotic EC50); type: cell-based, human; conditions: Homo sapiens, HL-60, HL-60; unit inferred
Method: as §1

[5] = test system: MDA-MB-435; test: Bioassay for apoptosis (apoptotic EC50); type: cell-based, human
Method: as §1

[6] = test system: MCF-7; test: Bioassay for apoptosis (apoptotic EC50); type: cell-based, human; conditions: Homo sapiens, MCF7, MCF-7; unit inferred
Method: as §1

[7] = test system: PC-3; test: Bioassay for apoptosis (apoptotic EC50); type: cell-based, human; conditions: Homo sapiens, PC-3, PC-3; unit inferred
Method: as §1

[8] = test system: A-549; test: Bioassay for apoptosis (apoptotic EC50); type: cell-based, human; conditions: Homo sapiens, A549, unit inferred
Method: as §1

[9] = test system: ME-180; test: Bioassay for apoptosis (apoptotic EC50); type: cell-based, human; conditions: Homo sapiens, ME-180, ME-180; unit inferred
Method: as §1

[10] = test system: Jurkat; test: Bioassay for apoptosis (apoptotic EC50); type: cell-based, human; conditions: Homo sapiens, unit inferred
Method: as §1

[11] = test system: MCF-10A; test: Bioassay for apoptosis (apoptotic EC50); type: cell-based; conditions: Homo sapiens, unit inferred
Method: as §1

[12] = test system: T47D; test: Bioassay for apoptosis (apoptotic EC50); type: cell-based; conditions: Homo sapiens, unit inferred
Method: as §1

[13] = test system: HT-29; test: Bioassay for apoptosis (apoptotic EC50); type: cell-based, human; conditions: Homo sapiens, unit inferred
Method: as §1

[14] = test system: DLD-1; test: Bioassay for apoptosis (apoptotic EC50); type: cell-based, human; conditions: Homo sapiens, unit inferred
Method: as §1

[15] = test system: C-170; test: Bioassay for apoptosis (apoptotic EC50); type: cell-based, human; conditions: Homo sapiens, C170, C-170; unit inferred
Method: as §1

[16] = test system: RL-95-2; test: Bioassay for apoptosis (apoptotic EC50); type: cell-based, human; conditions: Homo sapiens, RL95-2, RL-95-2; unit inferred
Method: as §1

[17] = test system: breast tumor cell line MDA-MB-435; test: Bioassay for DNA synthesis arrest, naturally occurring vitamin E compounds; type: cell-based, human; conditions: Table 1
Method: Table 1 provides tumor growth inhibitory properties of naturally occurring vitamin E compounds against the breast tumor cell line MDA-MB-435.
To assay DNA synthesis, all cells were used at 2.5×10^5/ml. Cells were treated with each of the compounds at concentrations of 0.01, 0.1, 1, 5, 10 and 20 μg/mL and 200 μl of each treatment group were plated in quadruplicate in a 96 well culture plate (Corning, Corning N.Y.). Experiments were done in duplicate, one plate used for viability testing and the other plate for examination of ^3H-TdR uptake to monitor DNA synthesis. Plates were cultured for 48 hours at 37° C., 5% CO2. Eight hours prior to the end of incubation, ^3H-TdR was added to one of the duplicate plates and incubation continued for 8 hours.
The cells were then harvested (trypsinization was required to harvest adherent cells), and isotope uptake was determined as counts per minute (cpm). For viability studies, at the end of the incubation, the cells were removed from the wells and viability checked by the Trypan Blue Exclusion method. Percent viability and percent DNA synthesis in comparison to untreated or vehicle treated cells of each treatment group were calculated.

[18] = Homo sapiens, MDA-MB-435, MDA-MB-435, unit inferred, read-out: apoptotic EC50
[19] = MDA-MB-435, Table 1, read-out: EC50 for Apoptosis

Structure (SMILES)	growth inhibitory (apoptotic inducing) properties specific for human cancer cells [1]	EC50 [2] [µg/mL]	EC50 [3] [µg/mL]	EC50 [4] [µg/mL]	EC50 [5, 18] [µg/mL]	EC50 [6] [µg/mL]	EC50 [7] [µg/mL]	EC50 [8] [µg/mL]	EC50 [9] [µg/mL]	EC50 [10] [µg/mL]	EC50 [11] [µg/mL]	EC50 [12] [µg/mL]	EC50 [13] [µg/mL]	EC50 [14] [µg/mL]	EC50 [15] [µg/mL]	EC50 [16] [µg/mL]	EC50 [5, 19] [µM]	EC50 [17] [µM]
Cc1c(C)c2c(c(C)c1OCC(=O)O)C=C[C@@](C)(CCC[C@H](C)CCC[C@H](C)CCCC(C)C)O2 [Compound 20, 2,5,7,8-tetramethyl-(2R-(4R,8R,12-trimethyltridecyl)chroman-3-ene-6-yloxy)acetic acid]	effective	5 to 10 (≈ 10.3 to 20.5 µM)	5 to 10 (≈ 10.3 to 20.5 µM)	10 (≈ 20.5 µM)	10 to 20	5 to 10 (≈ 10.3 to 20.5 µM)	5 to 10 (≈ 10.3 to 20.5 µM)	20 to 30 (≈ 41.1 to 61.6 µM)	1 to 5 (≈ 2.05 to 10.3 µM)	10 to 20 (≈ 20.5 to 41.1 µM)	> 20	5 to 10 (≈ 10.3 to 20.5 µM)	–	–	–	–	–	–
CCCCCCC[C@]1(C)CCc2c(C)c(OCC(=O)O)c(C)c(C)c2O1 [Compound 23, 2,5,7,8-tetramethyl-(2R-(heptyl)chroman-6-yloxy)acetic acid]	–	> 20	–	–	> 20	> 20	> 20	–	–	–	> 20	–	> 20	–	–	–	–	–
CCCCCCCCCCCCC[C@]1(C)CCc2c(C)c(OCC(=O)O)c(C)c(C)c2O1 [Compound 24, 2,5,7,8-tetramethyl-(2R-(tridecyl)chroman-6-yloxy)acetic acid]	–	> 20	> 20	–	> 20	> 20	> 20	–	–	–	–	–	–	> 20	–	–	–	–
CCCCCCCCCCCCCCCCC[C@]1(C)CCc2c(C)c(OCC(=O)O)c(C)c(C)c2O1 [Compound 25, 2,5,7,8-tetramethyl-(2R-(heptadecyl)chroman-6-yloxy)acetic acid]	effective	20 to 30 (≈ 39.8 to 59.7 µM)	> 20	–	> 20	> 20	20 to 30 (≈ 39.8 to 59.7 µM)	–	> 20	–	> 20	–	> 20	> 20	> 20	> 20	–	–
CC(C)=CCC/C(C)=C\C=C/[C@]1(C)CCc2c(C)c(OCC(=O)O)c(C)c(C)c2O1 [Compound 26]	effective	> 20	10 to 20 (≈ 24.2 to 48.5 µM)	> 20	20 to 40	> 20	> 20	> 20	–	20 to 30 (≈ 48.5 to 72.7 µM)	> 20	> 20	> 20	20 to 40 (≈ 48.5 to 97 µM)	20 to 30 (≈ 48.5 to 72.7 µM)	20 to 30 (≈ 48.5 to 72.7 µM)	–	–
Cc1c(O)cc2c(c1C)O[C@](C)(CCC[C@H](C)CCC[C@H](C)CCCC(C)C)CC2 [γ-tocopherol, reference compound]	–	–	–	–	–	–	–	–	–	–	–	–	–	–	–	–	300	> 400
CC(C)=CCC/C(C)=C/CC/C(C)=C/CC[C@]1(C)CCc2cc(O)c(C)c(C)c2O1 [γ-tocotrienol, reference compound]	–	–	–	–	–	–	–	–	–	–	–	–	–	–	–	–	10	10
Cc1cc(O)cc2c1O[C@](C)(CCC[C@H](C)CCC[C@H](C)CCCC(C)C)CC2 [δ-tocopherol, reference compound]	–	–	–	–	–	–	–	–	–	–	–	–	–	–	–	–	100	150
CC(C)=CCC/C(C)=C/CC/C(C)=C/CC[C@]1(C)CCc2cc(O)cc(C)c2O1 [δ-tocotrienol, reference compound]	–	–	–	–	–	–	–	–	–	–	–	–	–	–	–	–	5	5
